Values after ≈ are worked out from the molar mass of the structure shown. Values belong to the compound of their own block, whether it stands above or below them.
Tests used:
[1] = Aqueous solubility of the compound at pH 7.4; type: physicochemical; conditions: buffer
[2] = Plasma concentration in human NCI-H1975 cell xenografted mouse at 25 mg/kg, iv after 6 hrs; type: ADME, organism-based; set-up: dose 25 mg/kg, route intravenous
[3] = Plasma concentration in human NCI-H1975 cell xenografted mouse at 25 mg/kg, iv after 24 hrs; type: ADME, organism-based; set-up: dose 25 mg/kg, route intravenous
[4] = Drug level in tumor in human NCI-H1975 cell xenografted mouse at 25 mg/kg, iv after 6 hrs; type: ADME, organism-based, Neoplasm; set-up: dose 25 mg/kg, route intravenous; conditions: read-out: Drug uptake
[5] = Drug level in tumor in human NCI-H1975 cell xenografted mouse at 25 mg/kg, iv after 24 hrs; type: ADME, organism-based, Neoplasm; set-up: dose 25 mg/kg, route intravenous; conditions: read-out: Drug uptake
[6] = Plasma concentration in human U87MG cells xenografted mouse at 50 mg/kg, iv after 6 hrs; type: ADME, organism-based, U-87MG ATCC; set-up: dose 50 mg/kg, route intravenous
[7] = Plasma concentration in human U87MG cells xenografted mouse at 50 mg/kg, iv after 24 hrs; type: ADME, organism-based, U-87MG ATCC; set-up: dose 50 mg/kg, route intravenous
[8] = Drug level in tumor in human U87MG cells xenografted mouse at 50 mg/kg, iv after 6 hrs; type: ADME, organism-based, Neoplasm, U-87MG ATCC; set-up: dose 50 mg/kg, route intravenous; conditions: read-out: Drug uptake
[9] = Drug level in tumor in human U87MG cells xenografted mouse at 50 mg/kg, iv after 24 hrs; type: ADME, organism-based, Neoplasm, U-87MG ATCC; set-up: dose 50 mg/kg, route intravenous; conditions: read-out: Drug uptake
[10] = Plasma concentration in human U87MG cells xenografted mouse at 50 mg/kg, po after 6 hrs; type: ADME, organism-based, U-87MG ATCC; set-up: dose 50 mg/kg, route oral
[11] = Plasma concentration in human U87MG cells xenografted mouse at 50 mg/kg, po after 24 hrs; type: ADME, organism-based, U-87MG ATCC; set-up: dose 50 mg/kg, route oral
[12] = Drug level in tumor in human U87MG cells xenografted mouse at 50 mg/kg, po after 6 hrs; type: ADME, organism-based, Neoplasm, U-87MG ATCC; set-up: dose 50 mg/kg, route oral; conditions: read-out: Drug uptake
[13] = Drug level in tumor in human U87MG cells xenografted mouse at 50 mg/kg, po after 24 hrs; type: ADME, organism-based, Neoplasm, U-87MG ATCC; set-up: dose 50 mg/kg, route oral; conditions: read-out: Drug uptake
[14] = AUC (0 to infinity) in CD1 mouse at 2 mg/kg, iv; type: ADME, organism-based; set-up: time infinity, dose 2 mg/kg, route intravenous; conditions: plasma
[15] = Volume of distribution at steady state in CD1 mouse at 2 mg/kg, iv; type: ADME, organism-based; set-up: dose 2 mg/kg, route intravenous; conditions: in vivo, read-out: Vdss
[16] = Bioavailability in CD1 mouse at 2 mg/kg, iv; type: ADME, organism-based; conditions: in vivo
[17] = AUC (0 to infinity) in CD1 mouse at 20 mg/kg, po; type: ADME, organism-based; set-up: time infinity, dose 20 mg/kg, route oral; conditions: plasma
[18] = Cmax in CD1 mouse at 20 mg/kg, po; type: ADME, organism-based; set-up: dose 20 mg/kg, route oral; conditions: in vivo
[19] = Tmax in CD1 mouse at 20 mg/kg, po; type: ADME, organism-based; set-up: dose 20 mg/kg, route oral; conditions: in vivo

solubility ([1]; read-out: solubility): > 0.1 mg/mL
SMILES: Cc1c2c(n3c1CCN(C(=O)[C@H](C)N)CC[C@H](C)Nc1cc-3ccc1C(N)=O)CC(C)(C)CC2=O

solubility [1]: 2.324 mg/mL (≈ 5350 µM)
SMILES: Cc1c2c(n3c1CCCN1CCC[C@H]1CNc1cc-3ccc1C(N)=O)CC(C)(C)CC2=O

solubility ([1]; read-out: solubility): 0.01 mg/mL (≈ 20.3 µM)
concentration at 6 h [2]: 0.036 µg/mL
concentration at 24 h [3]: 0.009 µg/mL
concentration at 6 h [4]: 693 ng/g
concentration at 24 h [5]: 910 ng/g
concentration at 6 h [6]: 0.102 µg/mL
concentration at 24 h [7]: 0.045 µg/mL
concentration at 6 h [8]: 967 ng/g
concentration at 24 h [9]: 772 ng/g
concentration at 6 h [10]: 0.053 µg/mL
concentration at 24 h [11]: 0.006 µg/mL
concentration at 6 h [12]: 309 ng/g
concentration at 24 h [13]: 242 ng/g
AUC(0-inf) [14]: 0.542 µg·h/mL
Vd [15]: 30 L/kg
bioavailability [16]: 4%
AUC(0-inf) [17]: 0.234 µg·h/mL
Cmax [18]: 0.022 µg/mL
Tmax [19]: 1 h
SMILES: Cc1c2c(n3c1CCN(C(=O)[C@H](C)N)C[C@@H](C)[C@H](C)Nc1cc-3ccc1C(N)=O)CC(C)(C)CC2=O

solubility ([1]; read-out: solubility): 0.007 mg/mL (≈ 13.8 µM)
SMILES: Cc1c2c(n3c1CCN(C(=O)C1(N)CC1)C[C@@H](C)[C@H](C)Nc1cc-3ccc1C(N)=O)CC(C)(C)CC2=O

solubility ([1]; read-out: solubility): 0.053 mg/mL (≈ 99.3 µM)
SMILES: Cc1c2c(n3c1CCN(C(=O)C1(N)CCCC1)C[C@@H](C)[C@H](C)Nc1cc-3ccc1C(N)=O)CC(C)(C)CC2=O

solubility ([1]; read-out: solubility): > 0.1 mg/mL
SMILES: Cc1c2c(n3c1CCN(C(=O)[C@@H]1CCCN1)C[C@@H](C)[C@H](C)Nc1cc-3ccc1C(N)=O)CC(C)(C)CC2=O

solubility ([1]; read-out: solubility): > 0.1 mg/mL
SMILES: Cc1c2c(n3c1CCN(C(=O)[C@H]1CCCN1)C[C@@H](C)[C@H](C)Nc1cc-3ccc1C(N)=O)CC(C)(C)CC2=O

Second part, the compound before the results:

SMILES: Cc1c2c(n3c1CCCNC[C@H](C)Nc1cc-3ccc1C(N)=O)CC(C)(C)CC2=O
solubility ([1]; read-out: solubility): > 0.1 mg/mL

SMILES: Cc1c2c(n3c1CCN(C(=O)[C@@H]1C[C@H](F)CN1)C[C@@H](C)[C@H](C)Nc1cc-3ccc1C(N)=O)CC(C)(C)CC2=O
solubility ([1]; read-out: solubility): 0.1 mg/mL (≈ 186 µM)

SMILES: CC(=O)N1CCc2c(C)c3c(n2-c2ccc(C(N)=O)c(c2)N[C@@H](C)[C@H](C)C1)CC(C)(C)CC3=O
solubility ([1]; read-out: solubility): 0.038 mg/mL (≈ 81.8 µM)

SMILES: Cc1c2c(n3c1CCN(C(=O)CN)C[C@@H](C)[C@H](C)Nc1cc-3ccc1C(N)=O)CC(C)(C)CC2=O
solubility ([1]; read-out: solubility): 0.046 mg/mL (≈ 95.9 µM)

SMILES: CC[C@H](N)C(=O)N1CCc2c(C)c3c(n2-c2ccc(C(N)=O)c(c2)N[C@@H](C)[C@H](C)C1)CC(C)(C)CC3=O
solubility ([1]; read-out: solubility): > 0.1 mg/mL

SMILES: Cc1c2c(n3c1CCN(C(=O)[C@@H](N)C(C)C)C[C@@H](C)[C@H](C)Nc1cc-3ccc1C(N)=O)CC(C)(C)CC2=O
solubility ([1]; read-out: solubility): > 0.1 mg/mL

SMILES: Cc1c2c(n3c1CCN(C(=O)C(C)(C)N)C[C@@H](C)[C@H](C)Nc1cc-3ccc1C(N)=O)CC(C)(C)CC2=O
solubility ([1]; read-out: solubility): > 0.1 mg/mL

SMILES: Cc1c2c(n3c1CCN(C(=O)[C@H](C)O)C[C@@H](C)[C@H](C)Nc1cc-3ccc1C(N)=O)CC(C)(C)CC2=O
solubility ([1]; read-out: solubility): 0.06 mg/mL (≈ 121 µM)

SMILES: Cc1c2c(n3c1CCN(C(=O)[C@@H](O)C(C)C)C[C@@H](C)[C@H](C)Nc1cc-3ccc1C(N)=O)CC(C)(C)CC2=O
solubility ([1]; read-out: solubility): 0.03 mg/mL (≈ 57.4 µM)

— ChEMBL document CHEMBL1806368 (Bioorg Med Chem Lett, 2011)
